Consider five substances from patent US9102752B2, “Peptide vaccine for prevention and immunotherapy of dementia of the Alzheimer's type” (United Biomedical, Inc., priority 2013, dated 2015).

Assay [1] deals with anti-Aβ antibodies in macaque antisera. Description: Specificity analysis (10-mer peptide ELISA) of antisera from Cynomolgus macaques. In kind it is binding. For orientation: ELISA stands for enzyme-linked immunosorbent assay.
The test system of assay [2] is anti-Aβ antibodies in sera of vaccinated patients. Put plainly: Epitope mapping, competitive binding inhibition EIA with patient sera (10-mer peptides, IC50). The arrangement: species or system human; Epitope mapping, fine specificity analysis, serum of subject P210: unit not given here. To be noted: for Epitope mapping, fine specificity analysis, serum of subject P101: serum 16 wpi of vaccinated patient P101; for Epitope mapping, fine specificity analysis, serum of subject P102: serum 16 wpi of vaccinated patient P102; for Epitope mapping, fine specificity analysis, serum of subject P103: serum 16 wpi of vaccinated patient P103; for Epitope mapping, fine specificity analysis, serum of subject P104: serum 16 wpi of vaccinated patient P104; for Epitope mapping, fine specificity analysis, serum of subject P105: serum 16 wpi of vaccinated patient P105; for Epitope mapping, fine specificity analysis, serum of subject P106: serum 16 wpi of vaccinated patient P106; for Epitope mapping, fine specificity analysis, serum of subject P107: serum 16 wpi of vaccinated patient P107; for Epitope mapping, fine specificity analysis, serum of subject P108: serum 16 wpi of vaccinated patient P108; for Epitope mapping, fine specificity analysis, serum of subject P109: serum 16 wpi of vaccinated patient P109; for Epitope mapping, fine specificity analysis, serum of subject P201: serum 16 wpi of vaccinated patient P201; for Epitope mapping, fine specificity analysis, serum of subject P202: serum 16 wpi of vaccinated patient P202; for Epitope mapping, fine specificity analysis, serum of subject P203: serum 16 wpi of vaccinated patient P203; for Epitope mapping, fine specificity analysis, serum of subject P204: serum 16 wpi of vaccinated patient P204; for Epitope mapping, fine specificity analysis, serum of subject P205: serum 16 wpi of vaccinated patient P205; for Epitope mapping, fine specificity analysis, serum of subject P206: serum 16 wpi of vaccinated patient P206; for Epitope mapping, fine specificity analysis, serum of subject P207: serum 16 wpi of vaccinated patient P207; for Epitope mapping, fine specificity analysis, serum of subject P208: serum 16 wpi of vaccinated patient P208; for Epitope mapping, fine specificity analysis, serum of subject P209: serum 16 wpi of vaccinated patient P209; for Epitope mapping, fine specificity analysis, serum of subject P210: serum 16 wpi of vaccinated patient P210.

Setting [3] is: antisera of macaques given UBI AD Vaccine 150 μg/dose, 9 WPI.
The mark [4] stands for this setting: antisera of macaques given UBI AD Vaccine 150 μg/dose, 15 WPI.
[5] abbreviates: antisera of macaques given UBI AD Vaccine 750 μg/dose, 9 WPI.
The mark [6] stands for this setting: antisera of macaques given UBI AD Vaccine 750 μg/dose, 15 WPI.

Take “22 (DSGYEVHHQK; PEPTIDE (1)..(10) Abeta 7-16 or APP 770(D678-K687); listed as Homo sapiens) [compound 22]”: in assay [1] (setting [3]), the “Reactivity of antisera with peptide (specificity analysis ELISA)” value (shortened to “Reactivity of antisera with peptide”) is recorded as 0.270. Besides, the “Reactivity of antisera with peptide” value in assay [1] (setting [4]) worked out at 0.289. The “Reactivity of antisera with peptide” value in assay [1] (setting [5]) amounted to 0.405. Moreover, in assay [1] (setting [6]), the “Reactivity of antisera with peptide” value is 0.197. Besides, in assay [2], the “Epitope mapping, fine specificity analysis, serum of subject P101” value (“Epitope mapping … of subject P101” for short) was 214; the “Epitope mapping, fine specificity analysis, serum of subject P102” value (“Epitope mapping … of subject P102” below) stood at 0; the “Epitope mapping, fine specificity analysis, serum of subject P103” value (shortened to “Epitope mapping … of subject P103”) was found to be 0; the “Epitope mapping, fine specificity analysis, serum of subject P104” value (“Epitope mapping … of subject P104” for short) came to 0. In addition, in assay [2], the “Epitope mapping, fine specificity analysis, serum of subject P105” value (“Epitope mapping … of subject P105” below) came out at 0; the “Epitope mapping, fine specificity analysis, serum of subject P106” value (shortened to “Epitope mapping … of subject P106”) is 0; the “Epitope mapping, fine specificity analysis, serum of subject P107” value (“Epitope mapping … of subject P107” for short) was found to be 0; the “Epitope mapping, fine specificity analysis, serum of subject P108” value (“Epitope mapping … of subject P108” below) came out at 0. Moreover, in assay [2], the “Epitope mapping, fine specificity analysis, serum of subject P109” value (shortened to “Epitope mapping … of subject P109”) is recorded as 0; the “Epitope mapping, fine specificity analysis, serum of subject P201” value (“Epitope mapping … of subject P201” for short) worked out at 0; the “Epitope mapping, fine specificity analysis, serum of subject P202” value (“Epitope mapping … of subject P202” below) is given as 0; the “Epitope mapping, fine specificity analysis, serum of subject P203” value (shortened to “Epitope mapping … of subject P203”) was 0. In addition, in assay [2], the “Epitope mapping, fine specificity analysis, serum of subject P204” value (“Epitope mapping … of subject P204” for short) came out at 0; the “Epitope mapping, fine specificity analysis, serum of subject P205” value (“Epitope mapping … of subject P205” below) is given as 0; the “Epitope mapping, fine specificity analysis, serum of subject P206” value (shortened to “Epitope mapping … of subject P206”) came to 0; the “Epitope mapping, fine specificity analysis, serum of subject P207” value (“Epitope mapping … of subject P207” for short) is reported as 0. Moreover, in assay [2], the “Epitope mapping, fine specificity analysis, serum of subject P208” value (“Epitope mapping … of subject P208” below) is on record as 0; the “Epitope mapping, fine specificity analysis, serum of subject P209” value (shortened to “Epitope mapping … of subject P209”) was determined as 0; the “Epitope mapping, fine specificity analysis, serum of subject P210” value (“Epitope mapping … of subject P210” for short) came out at 0.
For “9 (EEISEVKMDA; PEPTIDE (1)..(10) Abeta -8-2 or APP 770(E664-A673); listed as Homo sapiens) [compound 9]”, the “Reactivity of antisera with peptide” value in assay [1] (setting [3]) stood at 0.082. The “Reactivity of antisera with peptide” value in assay [1] (setting [4]) is 0.092. Besides, the “Reactivity of antisera with peptide” value in assay [1] (setting [5]) is reported as 0.081. The “Reactivity of antisera with peptide” value in assay [1] (setting [6]) came to 0.076. Besides, in assay [2], the “Epitope mapping … of subject P101” value is recorded as 0; the “Epitope mapping … of subject P102” value was found to be 0; the “Epitope mapping … of subject P103” value was found to be 0; the “Epitope mapping … of subject P104” value is 0. For the same substance, in assay [2], the “Epitope mapping … of subject P105” value worked out at 0; the “Epitope mapping … of subject P106” value came to 0; the “Epitope mapping … of subject P107” value was 0; the “Epitope mapping … of subject P108” value worked out at 0. Also, in assay [2], the “Epitope mapping … of subject P109” value worked out at 0; the “Epitope mapping … of subject P201” value amounted to 0; the “Epitope mapping … of subject P202” value stood at 0; the “Epitope mapping … of subject P203” value was determined as 0. In addition, in assay [2], the “Epitope mapping … of subject P204” value worked out at 0; the “Epitope mapping … of subject P205” value is recorded as 0; the “Epitope mapping … of subject P206” value stood at 0; the “Epitope mapping … of subject P207” value worked out at 0. Also, in assay [2], the “Epitope mapping … of subject P208” value amounted to 0; the “Epitope mapping … of subject P209” value was determined as 0; the “Epitope mapping … of subject P210” value worked out at 0.
On to “23 (SGYEVHHQKL; PEPTIDE (1)..(10) Abeta 8-17 or APP 770(S679-L688); listed as Homo sapiens) [compound 23]”, for which, in assay [1] (setting [3]), the “Reactivity of antisera with peptide” value was found to be 0.097. Also, the “Reactivity of antisera with peptide” value in assay [1] (setting [4]) is reported as 0.071. Further, the “Reactivity of antisera with peptide” value in assay [1] (setting [5]) came to 0.077. Also, the “Reactivity of antisera with peptide” value in assay [1] (setting [6]) stood at 0.082. In assay [2], the “Epitope mapping … of subject P101” value worked out at 0; the “Epitope mapping … of subject P102” value was 0; the “Epitope mapping … of subject P103” value amounted to 0; the “Epitope mapping … of subject P104” value is 0. Also, in assay [2], the “Epitope mapping … of subject P105” value is 0; the “Epitope mapping … of subject P106” value is 0; the “Epitope mapping … of subject P107” value turned out to be 0; the “Epitope mapping … of subject P108” value is 0. In assay [2], the “Epitope mapping … of subject P109” value stood at 0; the “Epitope mapping … of subject P201” value was 0; the “Epitope mapping … of subject P202” value was determined as 0; the “Epitope mapping … of subject P203” value is given as 0. Also, in assay [2], the “Epitope mapping … of subject P204” value is given as 0; the “Epitope mapping … of subject P205” value is reported as 0; the “Epitope mapping … of subject P206” value is 0; the “Epitope mapping … of subject P207” value was determined as 0. Moreover, in assay [2], the “Epitope mapping … of subject P208” value came to 0; the “Epitope mapping … of subject P209” value was determined as 0; the “Epitope mapping … of subject P210” value was 0.
With “17 (AEFRHDSGYE; PEPTIDE (1)..(10) Abeta 2-11 or APP 770(A673-E682); listed as Homo sapiens) [compound 17]”, the “Reactivity of antisera with peptide” value in assay [1] (setting [3]) stood at 0.058. The “Reactivity of antisera with peptide” value in assay [1] (setting [4]) is reported as 0.059. Further, the “Reactivity of antisera with peptide” value in assay [1] (setting [5]) was determined as 0.054. Further, in assay [1] (setting [6]), the “Reactivity of antisera with peptide” value is 0.060. In assay [2], the “Epitope mapping … of subject P101” value amounted to 2; the “Epitope mapping … of subject P102” value was determined as 0; the “Epitope mapping … of subject P103” value was 0; the “Epitope mapping … of subject P104” value is 0. In assay [2], the “Epitope mapping … of subject P105” value is 0; the “Epitope mapping … of subject P106” value is 0; the “Epitope mapping … of subject P107” value stood at 0; the “Epitope mapping … of subject P108” value was 0. Further, in assay [2], the “Epitope mapping … of subject P109” value was 0; the “Epitope mapping … of subject P201” value came out at 3; the “Epitope mapping … of subject P202” value is 0; the “Epitope mapping … of subject P203” value is reported as 0. Also, in assay [2], the “Epitope mapping … of subject P204” value was 0; the “Epitope mapping … of subject P205” value is 0; the “Epitope mapping … of subject P206” value turned out to be 0; the “Epitope mapping … of subject P207” value was 0. Further, in assay [2], the “Epitope mapping … of subject P208” value is reported as 0; the “Epitope mapping … of subject P209” value is 0; the “Epitope mapping … of subject P210” value was found to be 0.
Regarding “16 (MDAEFRHDSG; PEPTIDE (1)..(10) Abeta -1-9 or APP 770(M671-G680); listed as Homo sapiens) [compound 16]”, the “Reactivity of antisera with peptide” value in assay [1] (setting [3]) was 0.056. Moreover, the “Reactivity of antisera with peptide” value in assay [1] (setting [4]) amounted to 0.061. The “Reactivity of antisera with peptide” value in assay [1] (setting [5]) is 0.051. For the same substance, the “Reactivity of antisera with peptide” value in assay [1] (setting [6]) was determined as 0.056. In addition, in assay [2], the “Epitope mapping … of subject P101” value turned out to be 420; the “Epitope mapping … of subject P102” value is given as 12; the “Epitope mapping … of subject P103” value came to 0; the “Epitope mapping … of subject P104” value is listed as 0. Moreover, in assay [2], the “Epitope mapping … of subject P105” value stood at 0; the “Epitope mapping … of subject P106” value amounted to 0; the “Epitope mapping … of subject P107” value was determined as 0; the “Epitope mapping … of subject P108” value turned out to be 0. Also, in assay [2], the “Epitope mapping … of subject P109” value is on record as 0; the “Epitope mapping … of subject P201” value is 9; the “Epitope mapping … of subject P202” value was determined as 116; the “Epitope mapping … of subject P203” value is on record as 0. In assay [2], the “Epitope mapping … of subject P204” value is 17; the “Epitope mapping … of subject P205” value worked out at 0; the “Epitope mapping … of subject P206” value was determined as 0; the “Epitope mapping … of subject P207” value worked out at 2. In assay [2], the “Epitope mapping … of subject P208” value is recorded as 6; the “Epitope mapping … of subject P209” value stood at 0; the “Epitope mapping … of subject P210” value stood at 121.
